The target of this data set is T1, thermolysin (Bacillus thermoproteolyticus, UniProt P00800).
T1 sequence (P00800 233-548): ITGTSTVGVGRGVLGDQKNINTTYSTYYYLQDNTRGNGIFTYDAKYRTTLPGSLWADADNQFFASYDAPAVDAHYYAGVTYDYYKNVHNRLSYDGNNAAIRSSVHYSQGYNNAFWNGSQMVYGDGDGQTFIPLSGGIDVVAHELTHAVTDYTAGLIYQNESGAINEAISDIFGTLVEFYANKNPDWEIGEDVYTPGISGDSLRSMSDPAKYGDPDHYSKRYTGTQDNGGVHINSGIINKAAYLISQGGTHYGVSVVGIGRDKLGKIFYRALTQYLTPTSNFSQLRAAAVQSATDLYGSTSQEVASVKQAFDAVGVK
In words: Proteolytic stability: half-life to thermolysin degradation. Type of data set: in vitro ADME. Particulars: for Change in Half-Life to Thermolysin Degradation: glyco-variant minus its corresponding unglycosylated CBM (e.g. 2-1), *** not used in the correlation plot; for half-life: thermolysin (isolated protease), thermolysin degradation, mean of three trials ± SD, procedures as described previously (ESI ref 18). As to the method: All error bars reported are standard deviations of data achieved from three separate trials.
cellulose that were determined in accordance with our procedures as described previously 18.
The results are presented as mean of three trials ± SD. *Denotes an averaged value of four trials

The structures appear in SMILES notation. Bridge positions count the residues as written; N and C are the ends. Square brackets hold non-standard residues; d marks the D form. Peptide text beside a SMILES is read from it. * marks the point of attachment. X5 = O=P(O)(O)OC[C@H]1O[C@H](*)[C@@H](O)[C@@H](O)[C@@H]1O; X7 = CC(=O)N[C@H]1[C@@H](O)[C@H](O)[C@@H](CO)O[C@@H]1*; αMan = OC[C@H]1O[C@H](*)[C@@H](O)[C@@H](O)[C@@H]1O; hSer = N[C@@H](CCO)C(=O)O

Turning to `CC[C@H](C)[C@@H]1NC(=O)CNC(=O)CNC(=O)[C@@H](NC(=O)[C@H](CCC(N)=O)NC(=O)CNC(=O)[C@H](Cc2ccc(O)cc2)NC(=O)[C@H](Cc2c[nH]cn2)NC(=O)[C@H](CS[C@H]2O[C@H](CO)[C@@H](O)[C@H](O)[C@@H]2O)NC(=O)[C@H](CCC(N)=O)NC(=O)[C@@H](N)[C@@H](C)O)CSSC[C@@H]2NC(=O)[C@H]([C@@H](C)O)NC(=O)[C@H]([C@@H](C)O)NC(=O)CNC(=O)[C@H](CO)NC(=O)[C@H](C)NC(=O)[C@H](CSSC[C@@H](C(=O)N[C@@H](CC(C)C)C(=O)O)NC(=O)[C@H](CCC(N)=O)NC(=O)[C@H](CO)NC(=O)[C@H](Cc3ccc(O)cc3)NC(=O)[C@H](Cc3ccc(O)cc3)NC(=O)[C@@H]3CCCN3C(=O)[C@H](CC(N)=O)NC(=O)[C@H](CC(C)C)NC(=O)[C@H](C(C)C)NC(=O)[C@H](CCC(N)=O)NC2=O)NC(=O)[C@H](C(C)C)NC(=O)[C@H]([C@@H](C)O)NC(=O)[C@@H]2CCCN2C(=O)CNC(=O)[C@H](CO)NC(=O)[C@H](Cc2ccc(O)cc2)NC(=O)CNC1=O` [CBM variant 15] (H-TQC(αMan)HYGQCGGIGYSGPTVCASGTTCQVLNPYYSQCL-OH; disulfide 8-25, 19-35), the “Change in Half-Life to Thermolysin Degradation” value (“Change in Half-Life” for short) turned out to be 1.2 min and the half-life (usually how long it takes for the measured level to halve) is 12 ± 1.8 min.

Turning to `CC[C@H](C)[C@@H]1NC(=O)CNC(=O)CNC(=O)[C@@H](NC(=O)[C@H](CCC(N)=O)NC(=O)CNC(=O)[C@H](Cc2ccc(O)cc2)NC(=O)[C@H](Cc2c[nH]cn2)NC(=O)[C@@H](CO)NC(=O)[C@H](CCC(N)=O)NC(=O)[C@@H](N)[C@@H](C)O)CSSC[C@@H]2NC(=O)[C@H]([C@@H](C)O)NC(=O)[C@H]([C@@H](C)O)NC(=O)CNC(=O)[C@H](CO)NC(=O)[C@H](C)NC(=O)[C@H](CSSC[C@@H](C(=O)N[C@@H](CC(C)C)C(=O)O)NC(=O)[C@H](CCC(N)=O)NC(=O)[C@H](CO)NC(=O)[C@H](Cc3ccc(O)cc3)NC(=O)[C@H](Cc3ccc(O)cc3)NC(=O)[C@@H]3CCCN3C(=O)[C@H](CC(N)=O)NC(=O)[C@H](CC(C)C)NC(=O)[C@H](C(C)C)NC(=O)[C@H](CCC(N)=O)NC2=O)NC(=O)[C@H](C(C)C)NC(=O)[C@H]([C@@H](C)O)NC(=O)[C@@H]2CCCN2C(=O)CNC(=O)[C@H](CO)NC(=O)[C@H](Cc2ccc(O)cc2)NC(=O)CNC1=O` [CBM variant 16] (H-TQ[dS]HYGQCGGIGYSGPTVCASGTTCQVLNPYYSQCL-OH; disulfide 8-25, 19-35), the half-life was 11.4 ± 2.4 min. The same measure, in the same setting: under `CC[C@H](C)[C@@H]1NC(=O)CNC(=O)CNC(=O)[C@@H](NC(=O)[C@H](CCC(N)=O)NC(=O)CNC(=O)[C@H](Cc2ccc(O)cc2)NC(=O)[C@H](Cc2c[nH]cn2)NC(=O)[C@@H](CO[C@H]2O[C@H](CO)[C@@H](O)[C@H](O)[C@@H]2O)NC(=O)[C@H](CCC(N)=O)NC(=O)[C@@H](N)[C@@H](C)O)CSSC[C@@H]2NC(=O)[C@H]([C@@H](C)O)NC(=O)[C@H]([C@@H](C)O)NC(=O)CNC(=O)[C@H](CO)NC(=O)[C@H](C)NC(=O)[C@H](CSSC[C@@H](C(=O)N[C@@H](CC(C)C)C(=O)O)NC(=O)[C@H](CCC(N)=O)NC(=O)[C@H](CO)NC(=O)[C@H](Cc3ccc(O)cc3)NC(=O)[C@H](Cc3ccc(O)cc3)NC(=O)[C@@H]3CCCN3C(=O)[C@H](CC(N)=O)NC(=O)[C@H](CC(C)C)NC(=O)[C@H](C(C)C)NC(=O)[C@H](CCC(N)=O)NC2=O)NC(=O)[C@H](C(C)C)NC(=O)[C@H]([C@@H](C)O)NC(=O)[C@@H]2CCCN2C(=O)CNC(=O)[C@H](CO)NC(=O)[C@H](Cc2ccc(O)cc2)NC(=O)CNC1=O` [CBM variant 17] (H-TQ[dS](αMan)HYGQCGGIGYSGPTVCASGTTCQVLNPYYSQCL-OH; disulfide 8-25, 19-35) stands 10.2 ± 1.2 min; under `CC[C@H](C)[C@@H]1NC(=O)CNC(=O)CNC(=O)[C@@H](NC(=O)[C@H](CCC(N)=O)NC(=O)CNC(=O)[C@H](Cc2ccc(O)cc2)NC(=O)[C@H](Cc2c[nH]cn2)NC(=O)[C@H](CCO)NC(=O)[C@H](CCC(N)=O)NC(=O)[C@@H](N)[C@@H](C)O)CSSC[C@@H]2NC(=O)[C@H]([C@@H](C)O)NC(=O)[C@H]([C@@H](C)O)NC(=O)CNC(=O)[C@H](CO)NC(=O)[C@H](C)NC(=O)[C@H](CSSC[C@@H](C(=O)N[C@@H](CC(C)C)C(=O)O)NC(=O)[C@H](CCC(N)=O)NC(=O)[C@H](CO)NC(=O)[C@H](Cc3ccc(O)cc3)NC(=O)[C@H](Cc3ccc(O)cc3)NC(=O)[C@@H]3CCCN3C(=O)[C@H](CC(N)=O)NC(=O)[C@H](CC(C)C)NC(=O)[C@H](C(C)C)NC(=O)[C@H](CCC(N)=O)NC2=O)NC(=O)[C@H](C(C)C)NC(=O)[C@H]([C@@H](C)O)NC(=O)[C@@H]2CCCN2C(=O)CNC(=O)[C@H](CO)NC(=O)[C@H](Cc2ccc(O)cc2)NC(=O)CNC1=O` [CBM variant 18] (H-TQ[hSer]HYGQCGGIGYSGPTVCASGTTCQVLNPYYSQCL-OH; disulfide 8-25, 19-35), 18 ± 0.6 min.

On to `CC[C@H](C)[C@@H]1NC(=O)CNC(=O)CNC(=O)[C@@H](NC(=O)[C@H](CCC(N)=O)NC(=O)CNC(=O)[C@H](Cc2ccc(O)cc2)NC(=O)[C@H](Cc2c[nH]cn2)NC(=O)[C@H](CCO[C@H]2O[C@H](CO)[C@@H](O)[C@H](O)[C@@H]2O)NC(=O)[C@H](CCC(N)=O)NC(=O)[C@@H](N)[C@@H](C)O)CSSC[C@@H]2NC(=O)[C@H]([C@@H](C)O)NC(=O)[C@H]([C@@H](C)O)NC(=O)CNC(=O)[C@H](CO)NC(=O)[C@H](C)NC(=O)[C@H](CSSC[C@@H](C(=O)N[C@@H](CC(C)C)C(=O)O)NC(=O)[C@H](CCC(N)=O)NC(=O)[C@H](CO)NC(=O)[C@H](Cc3ccc(O)cc3)NC(=O)[C@H](Cc3ccc(O)cc3)NC(=O)[C@@H]3CCCN3C(=O)[C@H](CC(N)=O)NC(=O)[C@H](CC(C)C)NC(=O)[C@H](C(C)C)NC(=O)[C@H](CCC(N)=O)NC2=O)NC(=O)[C@H](C(C)C)NC(=O)[C@H]([C@@H](C)O)NC(=O)[C@@H]2CCCN2C(=O)CNC(=O)[C@H](CO)NC(=O)[C@H](Cc2ccc(O)cc2)NC(=O)CNC1=O` [CBM variant 19] (H-TQ[hSer](αMan)HYGQCGGIGYSGPTVCASGTTCQVLNPYYSQCL-OH; disulfide 8-25, 19-35), for which the “Change in Half-Life” value was 2.4 min and the half-life was 20.4 ± 4.2 min. Taken in the same sequence, the figures for `CC[C@H](C)[C@@H]1NC(=O)CNC(=O)CNC(=O)[C@@H](NC(=O)[C@H](CCC(N)=O)NC(=O)CNC(=O)[C@H](Cc2ccc(O)cc2)NC(=O)[C@H](Cc2c[nH]cn2)NC(=O)[C@H](CO[C@H]2O[C@H](COP(=O)(O)O)[C@@H](O)[C@H](O)[C@@H]2O)NC(=O)[C@H](CCC(N)=O)NC(=O)[C@@H](N)[C@@H](C)O)CSSC[C@@H]2NC(=O)[C@H]([C@@H](C)O)NC(=O)[C@H]([C@@H](C)O)NC(=O)CNC(=O)[C@H](CO)NC(=O)[C@H](C)NC(=O)[C@H](CSSC[C@@H](C(=O)N[C@@H](CC(C)C)C(=O)O)NC(=O)[C@H](CCC(N)=O)NC(=O)[C@H](CO)NC(=O)[C@H](Cc3ccc(O)cc3)NC(=O)[C@H](Cc3ccc(O)cc3)NC(=O)[C@@H]3CCCN3C(=O)[C@H](CC(N)=O)NC(=O)[C@H](CC(C)C)NC(=O)[C@H](C(C)C)NC(=O)[C@H](CCC(N)=O)NC2=O)NC(=O)[C@H](C(C)C)NC(=O)[C@H]([C@@H](C)O)NC(=O)[C@@H]2CCCN2C(=O)CNC(=O)[C@H](CO)NC(=O)[C@H](Cc2ccc(O)cc2)NC(=O)CNC1=O` [CBM variant 20] (H-TQS(X5)HYGQCGGIGYSGPTVCASGTTCQVLNPYYSQCL-OH; disulfide 8-25, 19-35) were 20.4 min and 34.2 ± 3.6 min. For the compound `CC[C@H](C)[C@@H]1NC(=O)CNC(=O)CNC(=O)[C@@H](NC(=O)[C@H](CCC(N)=O)NC(=O)CNC(=O)[C@H](Cc2ccc(O)cc2)NC(=O)[C@H](Cc2c[nH]cn2)NC(=O)[C@H](CO[C@H]2O[C@H](CO)[C@@H](O)[C@H](O)[C@@H]2NC(C)=O)NC(=O)[C@H](CCC(N)=O)NC(=O)[C@@H](N)[C@@H](C)O)CSSC[C@@H]2NC(=O)[C@H]([C@@H](C)O)NC(=O)[C@H]([C@@H](C)O)NC(=O)CNC(=O)[C@H](CO)NC(=O)[C@H](C)NC(=O)[C@H](CSSC[C@@H](C(=O)N[C@@H](CC(C)C)C(=O)O)NC(=O)[C@H](CCC(N)=O)NC(=O)[C@H](CO)NC(=O)[C@H](Cc3ccc(O)cc3)NC(=O)[C@H](Cc3ccc(O)cc3)NC(=O)[C@@H]3CCCN3C(=O)[C@H](CC(N)=O)NC(=O)[C@H](CC(C)C)NC(=O)[C@H](C(C)C)NC(=O)[C@H](CCC(N)=O)NC2=O)NC(=O)[C@H](C(C)C)NC(=O)[C@H]([C@@H](C)O)NC(=O)[C@@H]2CCCN2C(=O)CNC(=O)[C@H](CO)NC(=O)[C@H](Cc2ccc(O)cc2)NC(=O)CNC1=O` [CBM variant 21] (H-TQS(X7)HYGQCGGIGYSGPTVCASGTTCQVLNPYYSQCL-OH; disulfide 8-25, 19-35), the “Change in Half-Life” value worked out at 27.6 min and the half-life was 41.4 ± 5.4 min.

These data come from paper PMC5580309, “Molecular-scale features that govern the effects of O-glycosylation on a carbohydrate-binding module” (Chemical Science, 2015).
